Data reported in ChEMBL document CHEMBL5291721, “A preclinical secondary pharmacology resource illuminates target-adverse drug reaction associations of marketed drugs” (Nat Commun, 2023).

Assays:
[1] = molecular target: Vascular endothelial growth factor receptor 2 (Homo sapiens, UniProt P35968); assay type: functional
[2] = molecular target: T1, Type-1 angiotensin II receptor (Homo sapiens, UniProt P30556)
T1 sequence (P30556 whole entry): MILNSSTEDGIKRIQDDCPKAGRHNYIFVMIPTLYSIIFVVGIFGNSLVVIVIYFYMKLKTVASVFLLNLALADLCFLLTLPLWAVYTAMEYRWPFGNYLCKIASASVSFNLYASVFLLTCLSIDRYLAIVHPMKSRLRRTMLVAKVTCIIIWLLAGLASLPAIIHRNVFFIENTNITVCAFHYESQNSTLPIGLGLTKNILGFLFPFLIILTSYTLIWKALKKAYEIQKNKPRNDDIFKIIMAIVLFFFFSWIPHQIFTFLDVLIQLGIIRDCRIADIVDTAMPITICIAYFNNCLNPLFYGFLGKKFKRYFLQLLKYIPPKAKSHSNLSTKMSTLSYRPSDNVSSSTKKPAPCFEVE

[3] = molecular target: T2, Muscarinic acetylcholine receptor M2 (Homo sapiens, UniProt P08172); assay type: functional, cell-based
T2 sequence (P08172 whole entry): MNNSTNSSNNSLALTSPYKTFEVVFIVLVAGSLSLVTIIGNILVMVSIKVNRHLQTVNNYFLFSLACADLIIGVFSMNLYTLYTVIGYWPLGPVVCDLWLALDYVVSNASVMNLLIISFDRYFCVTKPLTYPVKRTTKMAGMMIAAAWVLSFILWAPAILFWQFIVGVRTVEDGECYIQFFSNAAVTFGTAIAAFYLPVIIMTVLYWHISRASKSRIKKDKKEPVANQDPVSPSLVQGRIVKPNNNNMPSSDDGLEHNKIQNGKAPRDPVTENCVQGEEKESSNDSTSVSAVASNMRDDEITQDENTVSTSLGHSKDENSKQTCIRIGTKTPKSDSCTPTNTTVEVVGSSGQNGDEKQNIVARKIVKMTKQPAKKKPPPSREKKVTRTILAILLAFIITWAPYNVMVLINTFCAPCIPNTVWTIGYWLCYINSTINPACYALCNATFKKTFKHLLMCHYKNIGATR

Endothelin-1 receptor = molecular target: T3, Endothelin-1 receptor (Homo sapiens, UniProt P25101)
T3 sequence (P25101 whole entry): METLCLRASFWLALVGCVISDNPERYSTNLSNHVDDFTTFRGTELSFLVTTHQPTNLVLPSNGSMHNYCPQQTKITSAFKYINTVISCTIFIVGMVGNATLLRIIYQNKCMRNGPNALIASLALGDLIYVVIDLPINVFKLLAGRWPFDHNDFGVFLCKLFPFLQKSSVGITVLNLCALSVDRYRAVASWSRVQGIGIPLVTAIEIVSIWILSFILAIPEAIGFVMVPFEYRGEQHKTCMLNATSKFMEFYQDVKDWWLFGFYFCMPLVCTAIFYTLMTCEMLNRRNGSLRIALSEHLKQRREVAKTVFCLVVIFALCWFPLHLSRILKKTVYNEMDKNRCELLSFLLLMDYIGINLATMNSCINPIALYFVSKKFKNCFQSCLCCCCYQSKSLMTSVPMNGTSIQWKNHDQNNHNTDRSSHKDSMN

[4] = molecular target: 5-hydroxytryptamine receptor 2A (Homo sapiens, UniProt P28223); assay type: functional, cell-based
Sequence of 5-hydroxytryptamine receptor 2A (P28223 whole entry): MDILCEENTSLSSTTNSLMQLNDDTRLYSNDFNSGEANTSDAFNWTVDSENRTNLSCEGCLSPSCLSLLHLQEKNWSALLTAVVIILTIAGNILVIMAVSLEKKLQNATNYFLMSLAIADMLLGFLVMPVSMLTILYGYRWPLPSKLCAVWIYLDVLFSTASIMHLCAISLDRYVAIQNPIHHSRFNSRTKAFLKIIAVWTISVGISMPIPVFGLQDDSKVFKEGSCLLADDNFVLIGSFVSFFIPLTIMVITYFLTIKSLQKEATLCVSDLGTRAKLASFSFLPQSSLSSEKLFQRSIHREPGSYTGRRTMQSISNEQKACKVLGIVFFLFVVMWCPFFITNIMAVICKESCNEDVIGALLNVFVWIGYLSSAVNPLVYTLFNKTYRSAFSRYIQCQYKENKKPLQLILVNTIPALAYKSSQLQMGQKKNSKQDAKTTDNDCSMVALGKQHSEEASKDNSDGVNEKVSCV

Mu-type opioid receptor = Mu-type opioid receptor (Homo sapiens, UniProt P35372); assay: biochemical; assay type: functional
Sequence of Mu-type opioid receptor (P35372 whole entry): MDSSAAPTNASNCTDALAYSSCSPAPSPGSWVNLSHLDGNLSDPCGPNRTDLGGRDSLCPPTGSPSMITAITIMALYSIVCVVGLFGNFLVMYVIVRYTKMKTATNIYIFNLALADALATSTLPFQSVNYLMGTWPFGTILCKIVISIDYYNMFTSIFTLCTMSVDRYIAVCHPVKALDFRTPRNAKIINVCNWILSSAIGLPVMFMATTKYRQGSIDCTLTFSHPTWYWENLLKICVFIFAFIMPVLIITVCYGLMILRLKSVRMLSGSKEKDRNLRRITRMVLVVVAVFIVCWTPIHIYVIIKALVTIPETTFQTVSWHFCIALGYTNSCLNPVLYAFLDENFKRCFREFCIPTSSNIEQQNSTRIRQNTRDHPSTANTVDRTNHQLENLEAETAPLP

Progesterone receptor [5] = molecular target: T4, Progesterone receptor (Homo sapiens, UniProt P06401); assay type: functional
T4 sequence (P06401 whole entry): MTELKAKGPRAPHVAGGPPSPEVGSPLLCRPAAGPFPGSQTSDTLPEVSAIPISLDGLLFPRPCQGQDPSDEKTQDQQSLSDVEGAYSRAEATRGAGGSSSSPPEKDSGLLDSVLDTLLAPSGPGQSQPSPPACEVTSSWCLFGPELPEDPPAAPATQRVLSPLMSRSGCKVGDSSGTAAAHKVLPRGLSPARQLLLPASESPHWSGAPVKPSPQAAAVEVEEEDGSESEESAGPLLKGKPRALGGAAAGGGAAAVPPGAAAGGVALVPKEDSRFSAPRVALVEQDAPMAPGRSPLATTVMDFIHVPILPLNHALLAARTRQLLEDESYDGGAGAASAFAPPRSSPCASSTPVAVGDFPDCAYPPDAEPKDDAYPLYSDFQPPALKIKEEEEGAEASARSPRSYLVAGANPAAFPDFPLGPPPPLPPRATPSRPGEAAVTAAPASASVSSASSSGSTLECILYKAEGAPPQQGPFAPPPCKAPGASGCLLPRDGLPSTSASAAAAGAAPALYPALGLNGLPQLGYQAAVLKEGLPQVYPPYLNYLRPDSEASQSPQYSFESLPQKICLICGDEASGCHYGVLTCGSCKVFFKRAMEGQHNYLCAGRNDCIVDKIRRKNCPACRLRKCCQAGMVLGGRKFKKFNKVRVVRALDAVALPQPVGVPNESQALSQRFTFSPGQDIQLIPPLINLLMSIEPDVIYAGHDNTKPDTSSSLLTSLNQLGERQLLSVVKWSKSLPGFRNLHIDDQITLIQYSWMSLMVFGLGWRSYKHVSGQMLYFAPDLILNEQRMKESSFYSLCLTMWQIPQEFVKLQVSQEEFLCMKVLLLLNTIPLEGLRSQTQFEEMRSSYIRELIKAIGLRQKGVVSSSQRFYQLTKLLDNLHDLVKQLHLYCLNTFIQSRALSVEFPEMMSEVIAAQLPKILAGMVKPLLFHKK

Progesterone receptor [6] = molecular target: T4, Progesterone receptor; assay type: functional; remark: listed apart in the source
[7] = molecular target: Sodium-dependent dopamine transporter (Homo sapiens, UniProt Q01959)
Sequence of Sodium-dependent dopamine transporter (Q01959 whole entry): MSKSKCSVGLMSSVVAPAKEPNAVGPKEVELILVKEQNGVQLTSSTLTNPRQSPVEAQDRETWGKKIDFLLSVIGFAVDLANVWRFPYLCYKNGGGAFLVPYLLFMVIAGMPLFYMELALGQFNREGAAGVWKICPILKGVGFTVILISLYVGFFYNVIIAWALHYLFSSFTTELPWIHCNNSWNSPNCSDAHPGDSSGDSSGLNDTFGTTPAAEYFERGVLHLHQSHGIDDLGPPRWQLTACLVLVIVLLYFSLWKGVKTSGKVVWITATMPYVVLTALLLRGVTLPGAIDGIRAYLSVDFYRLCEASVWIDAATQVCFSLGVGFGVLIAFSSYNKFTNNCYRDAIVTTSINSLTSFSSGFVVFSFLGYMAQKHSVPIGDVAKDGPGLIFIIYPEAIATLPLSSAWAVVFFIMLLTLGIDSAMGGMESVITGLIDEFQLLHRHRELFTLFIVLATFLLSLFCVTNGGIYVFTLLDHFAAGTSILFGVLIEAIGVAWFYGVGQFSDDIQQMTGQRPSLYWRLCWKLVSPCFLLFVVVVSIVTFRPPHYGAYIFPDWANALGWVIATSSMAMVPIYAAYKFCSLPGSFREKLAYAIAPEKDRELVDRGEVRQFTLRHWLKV

[8] = molecular target: Sodium-dependent noradrenaline transporter (Homo sapiens, UniProt P23975)
Sequence of Sodium-dependent noradrenaline transporter (P23975 whole entry): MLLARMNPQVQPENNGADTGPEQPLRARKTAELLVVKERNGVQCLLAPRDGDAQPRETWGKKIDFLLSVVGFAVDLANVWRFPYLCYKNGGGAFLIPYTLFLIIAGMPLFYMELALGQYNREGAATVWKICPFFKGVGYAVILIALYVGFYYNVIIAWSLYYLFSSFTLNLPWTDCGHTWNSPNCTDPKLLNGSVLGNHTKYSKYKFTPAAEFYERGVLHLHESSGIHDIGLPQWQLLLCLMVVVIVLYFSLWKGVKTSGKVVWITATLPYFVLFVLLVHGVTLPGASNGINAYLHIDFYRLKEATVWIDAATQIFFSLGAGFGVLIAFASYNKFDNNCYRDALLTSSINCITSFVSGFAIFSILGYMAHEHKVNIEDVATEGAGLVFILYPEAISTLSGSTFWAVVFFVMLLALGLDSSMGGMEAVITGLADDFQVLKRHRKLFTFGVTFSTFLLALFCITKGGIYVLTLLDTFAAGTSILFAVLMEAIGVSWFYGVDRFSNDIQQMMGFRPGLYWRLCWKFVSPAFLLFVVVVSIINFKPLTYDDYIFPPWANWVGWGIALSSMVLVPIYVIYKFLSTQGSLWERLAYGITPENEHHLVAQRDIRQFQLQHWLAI
Note: assay procedure not described here.

Sequence of Vascular endothelial growth factor receptor 2 (P35968 whole entry): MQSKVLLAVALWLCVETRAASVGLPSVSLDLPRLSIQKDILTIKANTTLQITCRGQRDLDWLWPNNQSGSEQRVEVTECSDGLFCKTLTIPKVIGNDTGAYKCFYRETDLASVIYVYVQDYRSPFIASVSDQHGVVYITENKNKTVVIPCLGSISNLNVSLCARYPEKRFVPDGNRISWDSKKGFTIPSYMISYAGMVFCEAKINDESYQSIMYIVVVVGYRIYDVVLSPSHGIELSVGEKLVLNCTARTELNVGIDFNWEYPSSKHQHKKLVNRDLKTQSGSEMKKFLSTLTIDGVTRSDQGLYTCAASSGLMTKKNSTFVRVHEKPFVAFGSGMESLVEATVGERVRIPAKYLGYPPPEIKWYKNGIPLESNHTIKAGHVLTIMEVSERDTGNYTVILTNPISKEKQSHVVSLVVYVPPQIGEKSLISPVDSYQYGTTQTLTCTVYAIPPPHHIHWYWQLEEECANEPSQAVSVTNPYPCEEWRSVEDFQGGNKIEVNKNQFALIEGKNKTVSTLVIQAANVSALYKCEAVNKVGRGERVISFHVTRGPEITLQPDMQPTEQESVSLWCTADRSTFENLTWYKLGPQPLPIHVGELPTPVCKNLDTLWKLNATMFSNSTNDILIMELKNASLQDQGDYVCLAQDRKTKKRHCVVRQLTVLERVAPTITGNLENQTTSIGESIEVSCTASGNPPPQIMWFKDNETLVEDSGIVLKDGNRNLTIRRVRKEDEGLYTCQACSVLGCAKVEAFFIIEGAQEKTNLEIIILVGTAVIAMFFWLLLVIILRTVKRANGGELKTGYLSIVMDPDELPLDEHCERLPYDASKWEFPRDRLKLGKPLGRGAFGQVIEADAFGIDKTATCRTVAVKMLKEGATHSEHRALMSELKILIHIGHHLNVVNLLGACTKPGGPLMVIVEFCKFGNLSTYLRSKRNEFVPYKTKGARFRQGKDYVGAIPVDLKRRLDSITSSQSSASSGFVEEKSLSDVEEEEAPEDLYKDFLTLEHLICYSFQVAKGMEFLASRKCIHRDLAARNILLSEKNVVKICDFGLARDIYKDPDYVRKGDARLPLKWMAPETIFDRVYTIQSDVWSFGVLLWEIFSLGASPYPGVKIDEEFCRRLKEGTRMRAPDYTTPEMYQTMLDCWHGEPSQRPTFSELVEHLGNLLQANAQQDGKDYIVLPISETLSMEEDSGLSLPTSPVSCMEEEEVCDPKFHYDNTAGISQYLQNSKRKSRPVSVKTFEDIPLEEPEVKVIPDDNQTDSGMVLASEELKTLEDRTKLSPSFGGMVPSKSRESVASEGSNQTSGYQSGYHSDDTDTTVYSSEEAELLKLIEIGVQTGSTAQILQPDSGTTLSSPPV

AC50 [2]	AC50 [3]	AC50 (Endothelin-1 receptor)	AC50 [4]	AC50 (Mu-type opioid receptor)	AC50 (Progesterone receptor [5])	AC50 (Progesterone receptor [6])	AC50 [7]	AC50 [8]	Molecule	AC50 [1]
									CN(C)c1ccc(C(=C2C=CC(=[N+](C)C)C=C2)c2ccc(N(C)C)cc2)cc1 [GENTIAN VIOLET]	2.97 µM
> 30 µM	> 30 µM	> 30 µM	> 30 µM	> 30 µM	> 30 µM	> 30 µM	> 30 µM	> 30 µM	HYDROXOCOBALAMIN	
